Read-outs that look alike come from different tables or passages of the source.
Legend:
[1] = molecular target: T1, hsst 4 (Homo sapiens, UniProt P31391); test: In vitro binding affinity, transfected cell lines, hsst 4; conditions: IC50±SEM; applicant's series, with own SS-28 reference
T1 construct: expressed in transfected cells

[2] = molecular target: T2, hsst 5 (Homo sapiens, UniProt P35346); test: In vitro binding affinity, transfected cell lines, hsst 5; conditions: IC50±SEM; applicant's series, with own SS-28 reference
T2 construct: expressed in transfected cells
T2 sequence (P35346 whole entry): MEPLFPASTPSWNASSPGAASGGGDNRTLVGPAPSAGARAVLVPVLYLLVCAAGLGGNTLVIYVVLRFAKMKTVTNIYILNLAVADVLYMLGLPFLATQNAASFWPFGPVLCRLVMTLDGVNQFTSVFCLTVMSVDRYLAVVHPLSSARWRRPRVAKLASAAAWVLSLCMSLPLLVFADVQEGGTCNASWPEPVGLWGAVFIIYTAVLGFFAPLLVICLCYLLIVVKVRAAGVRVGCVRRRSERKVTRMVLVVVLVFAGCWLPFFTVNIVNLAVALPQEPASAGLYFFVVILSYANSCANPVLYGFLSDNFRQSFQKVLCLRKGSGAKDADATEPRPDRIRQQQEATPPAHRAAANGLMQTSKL

[3] = molecular target: T3, hsst 3 (Homo sapiens, UniProt P32745); test: In vitro binding affinity, transfected cell lines, hsst 3; conditions: IC50±SEM; applicant's series, with own SS-28 reference
T3 construct: expressed in transfected cells
T3 sequence (P32745 whole entry): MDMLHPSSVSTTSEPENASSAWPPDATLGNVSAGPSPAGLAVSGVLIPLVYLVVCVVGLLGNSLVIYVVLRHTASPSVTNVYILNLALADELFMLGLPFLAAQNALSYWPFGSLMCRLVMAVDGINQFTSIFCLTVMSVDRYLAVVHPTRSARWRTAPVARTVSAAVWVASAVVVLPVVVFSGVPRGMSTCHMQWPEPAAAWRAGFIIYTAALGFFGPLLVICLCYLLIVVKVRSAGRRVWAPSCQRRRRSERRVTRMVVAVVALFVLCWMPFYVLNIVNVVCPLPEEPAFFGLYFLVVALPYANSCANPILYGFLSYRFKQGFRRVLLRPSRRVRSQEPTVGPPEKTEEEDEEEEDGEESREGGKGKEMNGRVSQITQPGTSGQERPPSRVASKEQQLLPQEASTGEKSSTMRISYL

[4] = molecular target: T4, hsst 2 (Homo sapiens, UniProt P30874); test: In vitro binding affinity, transfected cell lines, hsst 2; conditions: IC50±SEM; applicant's series, with own SS-28 reference
T4 construct: expressed in transfected cells
T4 sequence (P30874 whole entry): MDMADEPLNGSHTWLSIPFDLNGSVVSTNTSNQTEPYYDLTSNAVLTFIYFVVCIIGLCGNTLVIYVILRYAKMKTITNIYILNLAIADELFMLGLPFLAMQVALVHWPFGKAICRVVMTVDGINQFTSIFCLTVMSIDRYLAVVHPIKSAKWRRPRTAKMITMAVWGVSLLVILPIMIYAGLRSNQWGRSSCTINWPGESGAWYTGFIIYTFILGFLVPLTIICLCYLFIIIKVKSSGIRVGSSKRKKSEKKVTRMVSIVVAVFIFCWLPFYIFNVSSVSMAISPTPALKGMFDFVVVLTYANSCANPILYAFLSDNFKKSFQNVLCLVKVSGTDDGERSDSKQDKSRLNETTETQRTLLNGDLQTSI

[5] = molecular target: T1, hsst 4; conditions: IC50±SEM; published series (Reubi et al.), referenced to SS-28; cited from earlier work
[6] = molecular target: T3, hsst 3; conditions: IC50±SEM; published series (Reubi et al.), referenced to SS-28; cited from earlier work
[7] = molecular target: T4, hsst 2; conditions: IC50±SEM; published series (Reubi et al.), referenced to SS-28; cited from earlier work
[8] = molecular target: T2, hsst 5; conditions: IC50±SEM; published series (Reubi et al.), referenced to SS-28; cited from earlier work

T1 sequence (P31391 whole entry): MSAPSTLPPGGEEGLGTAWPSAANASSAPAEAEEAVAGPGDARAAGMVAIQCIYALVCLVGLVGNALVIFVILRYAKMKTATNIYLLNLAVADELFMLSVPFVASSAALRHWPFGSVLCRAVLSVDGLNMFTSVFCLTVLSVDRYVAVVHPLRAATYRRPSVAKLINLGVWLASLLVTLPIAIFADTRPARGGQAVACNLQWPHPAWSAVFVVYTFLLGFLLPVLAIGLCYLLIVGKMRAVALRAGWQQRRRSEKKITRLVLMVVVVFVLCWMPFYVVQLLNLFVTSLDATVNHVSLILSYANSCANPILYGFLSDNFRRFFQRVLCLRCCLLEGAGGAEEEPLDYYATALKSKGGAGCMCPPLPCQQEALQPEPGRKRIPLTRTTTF

Row | Molecule | IC50 [1] [nM] | IC50 [2] [nM] | IC50 [3] [nM] | IC50 [4] [nM] | IC50 [5] [nM] | IC50 [6] [nM] | IC50 [7] [nM] | IC50 [8] [nM]
1 | C[C@@H](O)[C@H](NC(=O)[C@@H]1CSSC[C@H](NC(=O)[C@H](N)Cc2ccccc2)C(=O)N[C@@H](Cc2csc3ccccc23)C(=O)N[C@H](Cc2c[nH]c3ccccc23)C(=O)N[C@@H](CCCCN)C(=O)N[C@@H]([C@@H](C)O)C(=O)N1)C(=O)O [compound 13, H-(D)Phe-cyclo[Cys-3-benzothienylalanyl-(D)Trp-Lys-Thr-Cys]-Thr-OH] | 60 | 2.1 | 27 | 0.43 |  |  |  | 
2 | C[C@@H](O)[C@@H]1NC(=O)[C@H](CCCCN)NC(=O)[C@@H](Cc2c[nH]c3ccccc23)NC(=O)[C@H](Cc2cccc3ccccc23)NC(=O)[C@@H](NC(=O)[C@@H](Cc2ccccc2)NC(=O)CN2CCN(CC(=O)O)CCN(CC(=O)O)CCN(CC(=O)O)CC2)CSSC[C@@H](C(=O)N[C@H](CO)[C@@H](C)O)NC1=O [cpd. 8, Y-DOTA-[1-Nal^3]-OC] | > 1000 | 10 ± 1.6 | 26 ± 1.9 | 3.3 ± 0.2 |  |  |  | 
3 | C[C@@H](O)[C@H](NC(=O)[C@@H]1CSSC[C@H](NC(=O)[C@@H](Cc2ccccc2)NC(=O)CN2CCN(CC(=O)O)CCN(CC(=O)O)CCN(CC(=O)O)CC2)C(=O)N[C@@H](Cc2csc3ccccc23)C(=O)N[C@H](Cc2c[nH]c3ccccc23)C(=O)N[C@@H](CCCCN)C(=O)N[C@@H]([C@@H](C)O)C(=O)N1)C(=O)O [cpd. 11, ^111In-labelled DOTA-(D)Phe-cyclo[Cys-3-benzothienylalanyl-(D)Trp-Lys-Thr-Cys]Thr-OH, metal not drawn] | 110 | 4 | 7 | 1.1 |  |  |  | 
4 | Y-DOTA-LAN [cpd. 5] |  |  |  |  | > 1000 | 290 ± 105 | 23 ± 5 | 16 ± 3.4
5 | Y-DOTA-OC [compound 4] |  |  |  |  | > 1000 |  | 20 ± 2 | 
6 | Y-DOTA-TOC [cpd. 6] |  |  |  |  | > 10000 |  | 11 ± 1.7 | 
